Entries after “also recorded” stand apart in the source; their conditions may differ. Starred links: 1 amine or outer side, 2 acyl side, 3 side chain; linkers in the order of their positions; H or OH if unused. Non-standard residues stand in square brackets, D forms with d. Residues, ends and D or L forms follow the SMILES beside them. *: point of attachment. hPhe = N[C@@H](CCc1ccccc1)C(=O)O; Morpholide = C1CN(*)CCO1; Cbz = O=C(OCc1ccccc1)*; CO = O=C([*:1])[*:2]; CH2F = FC*
Tests used:
[1] = test system: vimentin; test: Western blotting of HEL cell lysates with anti-vimentin antibody; assay type: cell-based, human; details: HEL cells; for effect on full-length vimentin, Jak2 vs non-Jak2 inhibitors: increasing concentrations; for cleavage of vimentin intermediate filaments in the viability samples: 30 μM G6 or 2% IDPN, 0, 6, 12, 24 or 48 hours
Experimental: Protein concentrations in the whole cell lysates were determined using a Bradford assay (Bio-Rad). Cell lysates were then resuspended in SDS sample buffer. Whole cell lysates (˜30 μg) were separated by SDS-PAGE and then transferred onto nitrocellulose membranes for analysis by western blotting.
(§1) Nitrocellulose membranes were first blocked with 5% milk/TBST solution at room temperature and then probed first with the different indicated primary antibodies overnight at 4° C. followed by the respective secondary antibodies (1:4000, GE Healthcare). The immuno-reactive bands were then visualized using the enhanced chemiluminescence system (Western Lightning Ultra, Perkin-Elmer). The following antibodies were used at the indicated dilutions: vimentin (Abcam and BD Biosciences, each at 1:500), STAT1 (Santa Cruz Biotechnology, 1:1000), and β-actin (Cell Signaling, 1:500).

[2] = test system: vimentin protein; test: Xenograft model of Jak2-V617F expressing HEL cells in NOD/SCID mice, bone marrow anti-vimentin immunohistochemistry; assay type: in vivo; details: NOD/SCID mice with HEL cells, 21 days
Text: The xenograft model of Jak2-V617F expressing HEL cells in NOD/SCID mice has been described previously (15). Briefly, 3 months old NOD/SCID mice were randomized into 5 groups (n=6 per group). […] All other groups received a single tail vein injection of 2×10^6 Jak2-V617F positive HEL cells. Three weeks after HEL cell injection, the mice developed symptoms of a fully penetrant bone marrow malignancy. The mice then began receiving intraperitoneal injections of either vehicle control (DMSO) or G6 at doses of 0.1, 1, and 10 mg/kg/day for the next 21 days. At the end of the three week treatment period, all groups of mice were euthanized and bone marrow tissues were fixed in 10% neutral-buffered formalin and embedded in paraffin.
Paraffin embedded bone marrow sections from each treatment group were analyzed by antivimentin immunohistochemistry. Antigen retrieval was carried out first by microwaving at 95° C. for 20 min in 1 mM EDTA-NaOH solution, pH 8.0. The section were then cooled, blocked with Protein Block (DAKO), and incubated with antivimentin antibody (Abcam, 1:100) for 2 hours at room temperature. Antigen-antibody comeplexes were detected using biotinylated secondary antibodies and streptavidin-peroxidase substrate (DAKO). Stained sections were then analyzed via a standard light microscope (Nikon) at 40× and 100× magnifications.

[3] = test system: vimentin intermediate filaments; test: Indirect immunofluorescence of vimentin in HEL cells; assay type: cell-based, human; details: 25 μM, 24 and 36 hr
Experimental: HEL cells were cultured in RPMI in 100 mm dishes and treated with 25 μM G6 for the indicated periods of time. Following treatment, the cells were centrifuged, washed and resuspended in 1×PBS. Cells were then plated onto poly-L-lysine coated 8-chamber slides (Santa Cruz Biotechnology) and fixed at −20° C. in a mixture of 50% methanol and 50% acetone for 10 minutes. The fixed cells were then permeabilized with 0.2% Triton X-100 and blocked with 5% goat serum for 30 minutes at room temperature. The samples were then incubated overnight at 4° C. with a primary antibody of mouse anti-vimentin (BD Biosciences, 1:100). The next day, the cells were washed 4× with PBS at room temperature. The samples were then incubated with a FITC-conjugated anti-mouse secondary antibody (Santa Cruz Biotechnology) for one hour at room temperature. The cells were again washed with PBS, mounted with UltraCruz DAPI containing mounting media (Santa Cruz Biotechnology) and sealed with a cover slip. These cells were imaged using a 100× objective on an inverted fluorescence microscope (Olympus).

[4] = test system: HEL cells; test: Cell proliferation assay (trypan blue exclusion, hemocytometer); assay type: cell-based, human; details: 30 μM G6 or 2% IDPN, 0, 6, 12, 24 or 48 hours, vs DMSO
Experimental: HEL cells were plated in 96-well plates and treated with either 0.25% DMSO, 30 μM G6 or 2% IDPN for the indicated periods of time. Cell viability was then assessed for each sample by trypan blue exclusion staining and hemocytometer.

[5] = test system: Jak2-V617F-mediated HEL cell proliferation; details: previously demonstrated (14,15); cited from earlier work
[6] = test system: vimentin; test: 2-D differential in gel electrophoresis (2-D DIGE) of HEL cell proteins; assay type: cell-based, human; details: HEL cells, 25 μM, 12 hours, vs 0.25% DMSO
Experimental: HEL cells treated either with vehicle control DMSO or 25 μM G6 for 12 hours. The cell pellets were resuspended in ice cold buffer containing 0.3% SDS, 20 mM Tris pH 8.0, 100 mM DTT, 10 μl protease inhibitor cocktail III (Calbiochem), 5 mM MgCl2 and 250 units of benzonase. The cell suspension was homogenized by sonication. Protein was precipitated with 9 volumes of ice cold 10% trichloroacetic acid (TCA) in acetone overnight at 4° C. Precipitated proteins were then dissolved in solubilization buffer (7 M urea, 2 M thiourea, 4% CHAPS, 0.2% SDS and 20 mM Tris, pH 8.0). After centrifugation at 43,000 rpm for 30 min, solubilized protein in the supernatant was quantified using the EZQ Protein Assay Kit (Invitrogen). Proteins (100 μg per sample) were minimally labeled with CyDye (GE Healthcare) as per the manufacturer's protocol. An internal standard, which is loaded on every gel, was created by mixing equal amounts of protein from all samples. Proteins from the DMSO treated samples were labeled with Cy3 (green) and the G6 treated samples were labeled with Cy5 (red). The internal standard was labeled with Cy2 (blue). […] The digital image was then analyzed with DeCyder 2D version 7.0 GE Healthcare). Information from replicate gels was analyzed with BVA Module (Biological Variation Analysis). […]

[7] = test system: caspase 3/7; details: HEL cells, previously showed (15); cited from earlier work
[8] = test system: PARP; test: Western blotting of HEL cell lysates for PARP cleavage; assay type: cell-based, human; details: HEL cells, pretreated 4 hours, then 30 μM and 60 μM G6 for 24 hours
Experimental: Cells (˜107) were washed with two volumes of ice-cold PBS and then lysed in 0.8 ml of ice-cold RIPA buffer (20 mM Tris pH 7.5, 10% glycerol, 1% Triton X-100, 1% deoxycholic acid, 0.1% SDS, 2.5 mM EDTA, 50 mM NaF, 10 mM Na4P2O7, 4 mM benzamidine, and 10 μg/mL aprotinin). Protein concentrations in the whole cell lysates were determined using a Bradford assay (Bio-Rad). Cell lysates were then resuspended in SDS sample buffer. Whole cell lysates (˜30 μg) were separated by SDS-PAGE and then transferred onto nitrocellulose membranes for analysis by western blotting.
as §1

N#C/C(=C/c1ccc(O)c(O)c1)C(=O)NCc1ccccc1 [AG490]
effect on full-length vimentin, Jak2 vs non-Jak2 inhibitors ([1]; 24 hours): induced cleavage of vimentin dose-dependently

CC(=O)OCOC(=O)CN(CC(=O)OCOC(C)=O)c1ccccc1OCCOc1ccccc1N(CC(=O)OCOC(C)=O)CC(=O)OCOC(C)=O [BAPTA-AM]
effect of pretreatment on G6-induced cleavage of vimentin ([1]; 10 μM BAPTA-AM 2 hours, then 30 μM G6 for 24 hours): sufficient to protect vimentin from G6-induced cleavage

CC(C)[C@H](NC(=O)N1CCOCC1)C(=O)N[C@@H](CCc1ccccc1)C(=O)CF [Calpain Inhibitor V, Mu-Val-HPh-CH2F] ({Morpholide-CO}-Val-[hPhe]-CH2F)
effect of pretreatment on G6-induced cleavage of vimentin ([1]; calpain inhibitor pretreatment 4 hours, then increasing doses of G6 for 24 hours): prevented G6-induced cleavage of vimentin in a dose-dependent manner

CNc1ccc2oc(C[C@H]3O[C@@]4(CC[C@H]3C)O[C@H]([C@H](C)C(=O)c3ccc[nH]3)[C@H](C)C[C@H]4C)nc2c1C(=O)O [Compound A23187]
cleavage of vimentin ([1]; 10 μM, increasing periods of time): sufficient to induce cleavage of intermediate filament protein vimentin

CCC(=C(CC)c1ccc(O)c(CN(CC)CC)c1)c1ccc(O)c(CN(CC)CC)c1 [Compound G6, 4,4′-(hex-3-ene-3,4-diyl)bis(2-((diethylamino)methyl)phenol)]
bone marrow vimentin protein level vs DMSO treated mice ([2]; 0.1 mg/kg/day intraperitoneal): did not produce any observable change | bone marrow vimentin protein level vs DMSO treated mice ([2]; 1 mg/kg/day intraperitoneal): clearly reduced the levels of vimentin protein | bone marrow vimentin protein level vs DMSO treated mice ([2]; 10 mg/kg/day intraperitoneal): clearly reduced the levels of vimentin protein | cellular distribution of vimentin [3]: aggregated/localized in the perinuclear region of the cell | viable cell numbers [4]: time dependently decreased viable cell numbers | Jak2-V617F-mediated HEL cell proliferation [5]: inhibits Jak2-V617F-mediated HEL cell proliferation | apoptosis of HEL cells [5]: induces apoptosis | full-length vimentin (western blot) ([1]; 25 μM, 24 h, vs DMSO): disappearance of full-length vimentin | cleavage of full-length vimentin as a function of time ([1]; 25 μM, varying lengths of time): cleaved into low molecular weight fragments | cleavage of vimentin intermediate filaments in the viability samples [1]: time-dependent cleavage of vimentin intermediate filaments | effect on full-length vimentin, Jak2 vs non-Jak2 inhibitors ([1]; 24 hours): induced cleavage of vimentin dose-dependently | cleavage of full-length vimentin as a function of dose ([1]; increasing doses, 24 hours): cleaved into low molecular weight fragments | specificity for vimentin over other cytoskeletal proteins (β-actin reprobe) ([1]; same samples reprobed with anti-β-actin antibody): specificity of G6 for vimentin over other cytoskeletal proteins such as β-actin | vimentin protein expression (2-D DIGE) [6]: down regulated; also recorded: significantly downregulated | caspase 3/7 activation [7]: causes caspase 3/7 activation in a time-dependent manner

N#CCCNCCC#N [IDPN, 3′,3′-iminodipropiontrile, reference compound]
viable cell numbers [4]: time dependently decreased viable cell numbers | cleavage of vimentin intermediate filaments in the viability samples [1]: time-dependent cleavage of vimentin intermediate filaments

COc1cccc(-c2cc(=O)c3ccccc3o2)c1N [PD98059]
effect on full-length vimentin, Jak2 vs non-Jak2 inhibitors ([1]; 24 hours): no effect on full-length vimentin

CC(C)(C)n1nc(-c2ccc(Cl)cc2)c2c(N)ncnc21 [PP2]
effect on full-length vimentin, Jak2 vs non-Jak2 inhibitors ([1]; 24 hours): no effect on full-length vimentin

C[C@@H]1C[C@@H]([C@H](O)CC2CC(=O)NC(=O)C2)C(=O)[C@@H](C)C1 [cycloheximide]
effect of pretreatment on G6-induced cleavage of vimentin ([1]; cycloheximide pretreatment 4 h, then increasing concentrations of G6 for 24 hours): not be blocked by pretreatment with cycloheximide

COC(=O)C[C@H](NC(=O)[C@H](C)NC(=O)[C@@H](NC(=O)OCc1ccccc1)C(C)C)C(=O)CF [zVAD-fmk, Z-VAD (OMe)-FMK] (Cbz-Val-Ala-Asp(OMe)-CH2F)
effect of pretreatment on G6-induced cleavage of PARP [8]: able to block the G6-induced cleavage of PARP | effect of pretreatment on G6-induced cleavage of vimentin ([1]; pretreated 4 hours, then 30 μM and 60 μM G6 for 24 hours): unable to prevent G6-induced cleavage of vimentin

Jak Inhibitor I
effect on full-length vimentin, Jak2 vs non-Jak2 inhibitors ([1]; 24 hours): induced cleavage of vimentin dose-dependently

— patent US20140248634A1, “VIMENTIN AS A BIOMARKER FOR THE PROGRESSION OF MYELOPROLIFERATIVE NEOPLASMS” (University of Florida Research Foundation, priority 2011, published 2014)
